Converted amounts (≈) assume the structure as drawn. Residues, ends and D or L forms follow the SMILES beside them.
What was measured:
Citrobacter freundii = test: Microbroth dilution assay, MIC; type: cell-based; conditions: overnight 37 °C, read at 600 nm, three independent experiments
Procedure: (§1) The β-defensins were tested using a microbroth dilution assay. It consists of incubating the bacteria (4.105 colony-forming unit—CFU/mL) and the peptide (from 1 to 512 µg/mL) in liquid broth. After the incubation at 37 °C during the night, the bacterial growth was detected by spectrophotometry at 600 nm. If the measure is similar to the broth, it […]. […] The β-defensins were tested against B. jararaca oral flora because it would be of biological and medical interest. In addition, we tested on E. coli ATCC 25922 and M. luteus that are common Gram-negative and Gram-positive bacteria used in antibacterial tests.
(§2) The antibacterial activity of the alkylated peptides was tested against Gram-negative (G−) bacteria (Klebsiella pneumonia, Serratia marcescens, Morganella morganii, Providencia rettgeri, Citrobacter freundii, Escherichia coli ATCC 25922 and Gram-positive (G+) bacteria (Micrococcus luteus A270 and Staphylococcus aureus) using microbroth assay. In a 96-well plate, 90 µL of 10% tryptone soy broth (TSB) with 4 × 10^5 colony-forming unit (CFU/mL) were mixed with serial twofold dilutions of β-defensins duplicate in concentrations from 512 to 1 µg/mL. The derived peptides coded as PS1, PS2, PS3, PS5, and PS6 (Table 1) were tested against these bacteria in serial twofold dilutions with concentrations bellow 700 µg/mL. After overnight incubation at 37 °C, the turbidity of the bacterial culture was read at 600 nm (Epoch microplate reader, Biotek). The minimal inhibitory concentration (MIC) of each peptide was determined as the lowest concentration that results in no visible bacterial growth. The MIC resulted from three independent experiments. The bacteria K. pneumonia, S. marcescens, M. morganii, P. rettgeri, C. freundii, M. luteus A270 and S. aureus were isolated from Bothrops jararaca buccal flora and kindly provided by Dr. Márcia R. Franzolin (Laboratory of Bacteriology—Instituto Butantan). M. luteus was kindly provided by Dr. Pedro I. da Silva Jr. (Laboratory of Applied Toxinology—Instituto Butantan).

Micrococcus luteus A270 = test: Microbroth dilution assay, MIC; type: cell-based; conditions: overnight 37 °C, read at 600 nm, three independent experiments
Procedure: as §1, §2

[1] = system: Escherichia coli ATCC 25922; test: Microbroth dilution assay, MIC; type: cell-based; conditions: overnight 37 °C, read at 600 nm, three independent experiments
Procedure: as §1, §2

Staphylococcus aureus = test: Microbroth dilution assay, MIC; type: cell-based; conditions: overnight 37 °C, read at 600 nm, three independent experiments
Procedure: as §1, §2

[2] = system: Cryptococcus neoformans (IOC 4528); test: Resazurin microtiter assay plate, antifungal MIC90; type: cell-based; conditions: resazurin colour change, RPMI 1640, 1 to 250 μM, 28 °C, 24–72 h; three independent experiments
Procedure: (§3) The derived peptides were also tested against fungi species using the classical resazurin microtiter assay plate method. It is based on the color change of the rezazurin dye that in blue indicates the absence of growth in at least 90%, and pink refers to microorganism growth. MIC is determined as the minimal concentration of the sample that can prevent the color change from blue to pink and refers to the inhibition of 90% of microorganisms.
(§4) The antifungal activity was evaluated by the microdilution assay as previously described on clinical strains of Candida albicans (IOC 4525), Cryptococcus neoformans (IOC 4528), Trichophyton rubrum (IOC 4527) and Aspergillus fumigatus (IOC 4526). The fungi were cultivated in potato dextrose agar at 28 °C according to the Clinical and Laboratory Standards Institute recommendations. Fungal suspensions were prepared in RPMI 1640 culture media; the CFU/mL was adjusted to 0.5–2.5 × 10^3 for yeasts (C. albicans and C. neoformans) and 0.4–5 × 10^4 CFU/mL for filamentous fungi (T. rubrum e A. fumigatus), by comparison with a standard curve previously stablished in our laboratory.
(§5) The peptides PS1, PS2, PS, PS3, PS4, PS5 and PS6 at 1 mM in acetic acid at 0.01% were diluted in RPMI 1640 culture media at concentrations ranging from 1 to 250 μM. Amphotericin B (AMB) at concentrations below 15 μg/mL (16 μM) and acetic acid from 0.0002 to 0.0025% was used as control.
(§6) The fungi suspensions were added to a 96 well plate (100 µL/well) and the samples (100 µL) in different concentrations were added to each well. The plate was incubated at 28 °C for 24–72 h, and 24 h before the end of the assay 25 µL of the rezazurin dye at 0.02% were added to each well. The minimal inhibitory concentration (MIC90) was defined as the lowest concentration that prevents the rezazurin’s change in color from blue to pink due to the inhibition of at least 90% of the microorganism’s growth. The assays were performed in three independent experiments.

[3] = system: Trichophyton rubrum (IOC 4527); test: Resazurin microtiter assay plate, antifungal MIC90; type: cell-based; conditions: resazurin colour change, RPMI 1640, 1 to 250 μM, 28 °C, 24–72 h; three independent experiments
Procedure: as §3, §4, §5, §6

[4] = system: Aspergillus fumigatus (IOC 4526); test: Resazurin microtiter assay plate, antifungal MIC90; type: cell-based; conditions: resazurin colour change, RPMI 1640, 1 to 250 μM, 28 °C, 24–72 h; three independent experiments
Procedure: as §3, §4, §5, §6

[5] = system: Candida albicans (IOC 4525); test: Resazurin microtiter assay plate, antifungal MIC90; type: cell-based; conditions: resazurin colour change, RPMI 1640, 1 to 250 μM, 28 °C, 24–72 h; three independent experiments
Procedure: as §3, §4, §5, §6

Klebsiella pneumonia = test: Microbroth dilution assay, MIC; type: cell-based, Klebsiella pneumoniae; conditions: short derived peptides, 2.75 to 700 µg/mL, overnight 37 °C, read at 600 nm, three independent experiments
Procedure: as §1, §2

[6] = snake β-defensins, linear (alkylated) except native crotamine, 10% TSB, 4 × 10^5 CFU/mL, 512 to 1 µg/mL
[7] = short derived peptides, 2.75 to 700 µg/mL

Molecule | MIC, C. freundii (Citrobacter freundii; [6]) [µM] | MIC, M. luteus (Micrococcus luteus A270; [6]) [µM] | MIC, E. coli [1, 6] [µM] | MIC, S. aureus (Staphylococcus aureus; [6]) [µM] | MIC, C. freundii (Citrobacter freundii; [7]) [µM] | MIC, M. luteus (Micrococcus luteus A270; [7]) [µM] | MIC, E. coli [1, 7] [µM] | MIC, S. aureus (Staphylococcus aureus; [7]) [µM] | MIC90, Cryptococcus neoformans [2] [µM] | MIC90, Trichophyton rubrum [3] [µM] | MIC90, Aspergillus fumigatus [4] [µM] | MIC90, Candida albicans [5] [µM] | MIC, K. pneumoniae (Klebsiella pneumonia) [µM]
QPQCRWLDGFCHSSPCPSGTTSIGQQDCLWYESCCIPRYEK [Crotasin, synthetic β-defensin deduced from C. durissus gene, GenBank AF250212] | >108 | >108 | >108 | >108 |  |  |  |  |  |  |  |  | 
QRRCRQRRGICRPRPCPPENFSLGRLDCQMGQMCCRRRFGK [DefbBm03, synthetic β-defensin deduced from B. mattogrossensis gene, GenBank KC117168] | 3.2 | 1.6 | 1.6 | >103 |  |  |  |  |  |  |  |  | 
QGQCHQQRGRCFLHQCPLSHYFLGRLDCGPGRRCCRRRK [DefbLm02, synthetic β-defensin deduced from L. muta gene, GenBank KC117172] | 3.4 | 0.9 | 3.4 | 6.8 |  |  |  |  |  |  |  |  | 
QDLCHNLGGRCFRNRCSWSLRNHGGQDCPWGSVCCKP [DefbTs, synthetic β-defensin deduced from T. strigatus gene, GenBank KX664429] | >122 | 15.3 | >122 | >122 |  |  |  |  |  |  |  |  | 
QEECLQQGGFCRLIRCPFGYDSLEQQDCRKGQRCCIRKPRK [DefbBj01, synthetic β-defensin deduced from B. jararaca gene, GenBank KC117163] | >105 | 3.2 | >105 | >105 |  |  |  |  |  |  |  |  | 
QEWCRGLGGFCSFYQCRPGHDLGPQDCWPERRCCRWGK [DefbLm01, synthetic β-defensin deduced from L. muta gene, GenBank KC117171] | >113 | 28.4 | >113 | >113 |  |  |  |  |  |  |  |  | 
QPECLRQGGMCRPRLCPYVSLGQLDCQNGHVCCRKKPRK [DefbBd03, synthetic β-defensin deduced from B. diporus gene, GenBank KC117160] | >115 | 0.9 | >115 | >115 |  |  |  |  |  |  |  |  | 
CSCC[C@H](NC(=O)[C@H](CCC(N)=O)NC(=O)[C@@H](N)CO)C(=O)NCC(=O)N[C@@H](CCC(N)=O)C(=O)N[C@@H](CCSC)C(=O)N[C@@H](CO)C(=O)N[C@@H](CO)C(=O)N[C@@H](CCCNC(=N)N)C(=O)N[C@@H](CCCNC(=N)N)C(=O)N[C@@H](CCCNC(=N)N)C(=O)N[C@@H](Cc1ccccc1)C(=O)NCC(=O)N[C@@H](CCCCN)C(=O)O [PS4] (H-SQMGQMSSRRRFGK-OH) |  |  |  |  | >423 | 26.6 (≈ 44 µg/mL) | >423 | >423 | >250 | >250 | >250 | >250 | >423
N=C(N)NCCC[C@H](NC(=O)[C@H](Cc1c[nH]c2ccccc12)NC(=O)[C@H](CCCNC(=N)N)NC(=O)[C@@H](N)CO)C(=O)N[C@@H](Cc1c[nH]c2ccccc12)C(=O)N[C@@H](CCCCN)C(=O)N[C@@H](CO)C(=O)O [PS6] (H-SRWRWKS-OH) |  |  |  |  |  | 43.8 (≈ 44 µg/mL) | 697 (≈ 701 µg/mL) | 349 (≈ 351 µg/mL) | >250 | >250 | >250 | >250 | >697
QPECCQEGGICHSKQCPLGYSSLGRLDCQLGQRCCIRIFGK [DefbBn02, synthetic β-defensin deduced from B. neuwiedi gene, GenBank KC117169] | >113 | >113 | >113 | >113 |  |  |  |  |  |  |  |  | 
DPVTCLKSGAICHPVFCPRRYKQIGTCGLPGTKCCKKP [hBd02, synthetic human β-defensin, GenBank AF071216, reference compound] | >124 | 2 | 15.6 | >124 |  |  |  |  |  |  |  |  | 
QRRCHQKGGMCLPGPCPPGYDSLGQQDCRRGQKCCIKRFGK [DefbBju01, synthetic β-defensin deduced from B. jararacussu gene, GenBank KC117165] | >111 | >111 | >111 | >111 |  |  |  |  |  |  |  |  | 
N=C(N)NCCC[C@H](NC(=O)CNC(=O)[C@@H]1CCCN1C(=O)CNC(=O)[C@@H](N)CO)C(=O)N[C@@H](CCCNC(=N)N)C(=O)N[C@@H](CO)C(=O)N[C@@H](CO)C(=O)N[C@@H](CCCNC(=N)N)C(=O)N[C@@H](CCCNC(=N)N)C(=O)N[C@@H](CCCNC(=N)N)C(=O)N[C@@H](Cc1c[nH]c2ccccc12)C(=O)N[C@@H](CCCCN)C(=O)O [PS5] (H-SGPGRRSSRRRWK-OH) |  |  |  |  | 110 (≈ 174 µg/mL) | 13.9 (≈ 22 µg/mL) | 55.2 (≈ 87.5 µg/mL) | 27.7 (≈ 43.9 µg/mL) | >250 | >250 | >250 | >250 | 27.7 (≈ 43.9 µg/mL)
QRRCRQRRGICRPRPCPPENFSLGRLDCQMGRMCCRRRFGK [DefbBm02, synthetic β-defensin deduced from B. mattogrossensis gene, GenBank KC117167] | 1.6 | 0.8 | 3.2 | 12.8 |  |  |  |  |  |  |  |  | 
N=C(N)NCCC[C@H](NC(=O)CNC(=O)[C@@H]1CCCN1C(=O)CNC(=O)[C@@H](N)CO)C(=O)N[C@@H](CCCNC(=N)N)C(=O)N[C@@H](CO)C(=O)N[C@@H](CO)C(=O)N[C@@H](CCCNC(=N)N)C(=O)N[C@@H](CCCNC(=N)N)C(=O)N[C@@H](CCCNC(=N)N)C(=O)N[C@@H](CCCCN)C(=O)O [PS3] (H-SGPGRRSSRRRK-OH) |  |  |  |  | >500 | 31.5 (≈ 44.1 µg/mL) | >500 | 125 (≈ 175 µg/mL) | >250 | >250 | >250 | >250 | >500
Crotamine | 6.7 | 1.7 | 13.3 | >105 |  |  |  |  |  |  |  |  | 
QRICLGGRGFCHSTPCPRSTIDYGKKDCWGSLRCCEPKRPGK [DefbPm, synthetic β-defensin deduced from P. mertensis gene, GenBank KX664436] | >109 | 6.8 | >109 | >109 |  |  |  |  |  |  |  |  | 

Source: PMC8777785, “Antimicrobial Activity of Snake β-Defensins and Derived Peptides” (Toxins, 2021)
